Measured values as given in patent US7166738B2, “Non-nucleoside reverse transcriptase inhibitors” (Roche Palo Alto LLC, priority 2004, dated 2007).

Compound | melting point [°C]
CC(C)CC(=O)NS(=O)(=O)c1ccc(NC(=O)Cc2ccc(Cl)c(Oc3cc(Cl)cc(C#N)c3)c2F)c(Cl)c1.[Na] | 159.3 to 163.4
CCc1ccc(CC(=O)Nc2ccccc2Cl)cc1Oc1cc(Cl)cc(Br)c1Cl [Compound I-37, 2-[3-(3-Bromo-2,5-dichloro-phenoxy)-4-ethyl-phenyl]-N-(2-chloro-phenyl)-acetamide] | 146.5 to 147.6
COCC(=O)NS(=O)(=O)c1ccc(NC(=O)Cc2ccc(Cl)c(Oc3cc(Cl)cc(C#N)c3)c2F)c(Cl)c1.[Na] | 151.7 to 152.3
Cc1cc(S(N)(=O)=O)ccc1NC(=O)Cc1ccc(Cl)c(Oc2cc(C#N)cc(C(F)(F)F)c2)c1F [Compound I-120, 2-[4-Chloro-3-(3-cyano-5-trifluoromethyl-phenoxy)-2-fluoro-phenyl]-N-(2-methyl-4-sulfamoyl-phenyl)-acetamide] | 212 to 216.1
Cc1cc(S(=O)(=O)N2CCSCC2)ccc1NC(=O)Cc1ccc(C)c(Oc2cc(Cl)cc(C#N)c2)c1 [Compound I-117, 2-[3-(3-Chloro-5-cyano-phenoxy)-4-methyl-phenyl]-N-[2-methyl-4-(thiomorpholine-4-sulfonyl)-phenyl]-acetamide] | 151.9 to 155.3
Cl.N#Cc1cc(Cl)cc(Oc2c(Cl)ccc(CC(=O)Nc3ccc(S(=O)(=O)NC(=O)CN4CCOCC4)cc3Cl)c2F)c1 | 223.3 to 225
COc1cc(CC(=O)Nc2ccc(S(N)(=O)=O)cc2C)cc(Oc2cc(C#N)ccc2Cl)c1 [Compound I-103, 2-[3-(2-Chloro-5-cyano-phenoxy)-5-methoxy-phenyl]-N-(2-methyl-4-sulfamoyl-phenyl)-acetamide] | 179.8 to 184
NS(=O)(=O)c1ccc(NC(=O)Cc2ccc(Cl)c(Oc3cc(Cl)cc(Cl)c3Cl)c2F)cc1 [Compound I-10, 2-[4-Chloro-2-fluoro-3-(2,3,5-trichloro-phenoxy)-phenyl]-N-(4-sulfamoyl-phenyl)-acetamide] | 247 to 249
CCC(=O)N(C)S(=O)(=O)c1ccc(NC(=O)Cc2ccc(Cl)c(Oc3cc(Cl)cc(C#N)c3)c2F)c(C)c1 [Compound I-99, 2-[4-Chloro-3-(3-chloro-5-cyano-phenoxy)-2-fluoro-phenyl]-N-[2-methyl-4-(methyl-propionyl-sulfamoyl)-phenyl]-acetamide] | 212 to 216.9
COc1cc(CC(=O)Nc2ccc(S(N)(=O)=O)cc2)cc(Oc2cc(C#N)ccc2Cl)c1 [Compound I-102, 2-[3-(2-Chloro-5-cyano-phenoxy)-5-methoxy-phenyl]-N-(4-sulfamoyl-phenyl)-acetamide] | 180.5 to 181.3
Cc1cc(CC(=O)Nc2ccc(S(N)(=O)=O)cc2Cl)cc(Oc2cc(C#N)ccc2Cl)c1 [Compound I-148, 2-[3-(2-Chloro-5-cyano-phenoxy)-5-methyl-phenyl]-N-(2-chloro-4-sulfamoyl-phenyl)-acetamide] | 212.9 to 214.4
COc1ccc(CC(=O)Nc2ccc(S(N)(=O)=O)cc2Cl)cc1Oc1cc(C#N)cc(C(F)F)c1 [Compound I-94, N-(2-Chloro-4-sulfamoyl-phenyl)-2-[3-(3-cyano-5-difluoromethyl-phenoxy)-4-methoxy-phenyl]-acetamide] | 185 to 187.9
Cc1cc(S(N)(=O)=O)ccc1NC(=O)Cc1ccc(C)c(Oc2cc(C#N)cc(C(F)F)c2)c1F [Compound I-85, 2-[3-(3-Cyano-5-difluoromethyl-phenoxy)-2-fluoro-4-methyl-phenyl]-N-(2-methyl-4-sulfamoyl-phenyl)-acetamide] | 218 to 220.4
Cc1ccc(CC(=O)Nc2ccc(S(N)(=O)=O)cc2Cl)cc1Oc1cc(C#N)cc(C#N)c1 [Compound I-44, N-(2-Chloro-4-sulfamoyl-phenyl)-2-[3-(3,5-dicyano-phenoxy)-4-methyl-phenyl]-acetamide] | 209.9 to 211.5
N#Cc1cc(Cl)cc(Oc2c(Cl)ccc(CC(=O)Nc3ccc(S(=O)(=O)NC(=O)CO)cc3Cl)c2F)c1.[Na] | 178 to 179.5
Cc1cc(S(N)(=O)=O)ccc1NC(=O)Cc1ccc(C)c(Oc2cc(Cl)ccc2Br)c1 [Compound I-31, 2-[3-(2-Bromo-5-chloro-phenoxy)-4-methyl-phenyl]-N-(2-methyl-4-sulfamoyl-phenyl)-acetamide] | 200.5 to 203.5
Cc1ccc(CC(=O)Nc2ccccc2Cl)cc1Oc1cc(Cl)ccc1Br [Compound I-33, 2-[3-(2-Bromo-5-chloro-phenoxy)-4-methyl-phenyl]-N-(2-chloro-phenyl)-acetamide] | 133.9 to 135.9
COc1ccc(CC(=O)Nc2ccccc2Cl)cc1Oc1cc(Cl)cc(C#N)c1 [Compound I-61, 2-[3-(3-Chloro-5-cyano-phenoxy)-4-methoxy-phenyl]-N-(2-chloro-phenyl)-acetamide] | 175.7 to 178.3
Cl.N#Cc1cc(Cl)cc(Oc2c(Cl)ccc(CC(=O)Nc3ccc(S(=O)(=O)NC(=O)CCN)cc3Cl)c2F)c1 | 199.3 to 199.6

Compound | melting point [°C]
CC(F)(F)c1cc(C#N)cc(Oc2c(Cl)ccc(CC(=O)Nc3ccc(S(N)(=O)=O)cc3Cl)c2F)c1 [Compound I-97, 2-{4-Chloro-3-[3-cyano-5-(1,1-difluoro-ethyl)-phenoxy]-2-fluoro-phenyl}-N-(2-chloro-4-sulfamoyl-phenyl)-acetamide] | 192 to 197.6
CCc1ccc(CC(=O)Nc2ccccc2Cl)cc1Oc1cc(C#N)cc(C#N)c1Cl [Compound I-60, 2-[3-(2-Chloro-3,5-dicyano-phenoxy)-4-ethyl-phenyl]-N-(2-chloro-phenyl)-acetamide] | 110 to 111.5
CCc1ccc(CC(=O)Nc2ccccc2Cl)cc1Oc1cc(Cl)ccc1C#N [Compound I-18, 2-[3-(5-Chloro-2-cyano-phenoxy)-4-ethyl-phenyl]-N-(2-chloro-phenyl)-acetamide] | 168 to 169.9
Cc1cc(CC(=O)Nc2ccc(S(N)(=O)=O)cc2)cc(Oc2cc(Cl)cc(C#N)c2)c1 [Compound I-141, 2-[3-(3-Chloro-5-cyano-phenoxy)-5-methyl-phenyl]-N-(4-sulfamoyl-phenyl)-acetamide] | 183.9 to 185.2
COc1cc(CC(=O)Nc2ccc(S(N)(=O)=O)cc2)cc(Oc2cc(Cl)cc(C#N)c2)c1 [Compound I-132, 2-[3-(3-Chloro-5-cyano-phenoxy)-5-methoxy-phenyl]-N-(4-sulfamoyl-phenyl)-acetamide] | 184.1 to 185.5
COc1ccc(CC(=O)Nc2ccc(S(N)(=O)=O)cc2Cl)cc1Oc1cc(C#N)ccc1Cl [Compound I-67, 2-[3-(2-Chloro-5-cyano-phenoxy)-4-methoxy-phenyl]-N-(2-chloro-4-sulfamoyl-phenyl)-acetamide] | 214.6 to 216.4
CCc1ccc(CC(=O)Nc2ccc(S(N)(=O)=O)cc2Cl)cc1Oc1cc(C#N)cc(C#N)c1Cl [Compound I-54, 2-[3-(2-Chloro-3,5-dicyano-phenoxy)-4-ethyl-phenyl]-N-(2-chloro-4-sulfamoyl-phenyl)-acetamide] | 180.3 to 183.1
CCc1ccc(CC(=O)Nc2ccc(S(N)(=O)=O)cc2C)cc1Oc1cc(Br)cc(F)c1Cl [Compound I-40, 2-[3-(5-Bromo-2-chloro-3-fluoro-phenoxy)-4-ethyl-phenyl]-N-(2-methyl-4-sulfamoyl-phenyl)-acetamide] | 207 to 209.9
CC(C)c1ccc(CC(=O)Nc2ccccc2Cl)cc1Oc1cc(Cl)ccc1Br [Compound I-27, 2-[3-(2-Bromo-5-chloro-phenoxy)-4-isopropyl-phenyl]-N-(2-chloro-phenyl)-acetamide] | 142.9 to 143.6
CCc1ccc(CC(=O)Nc2ccc(S(N)(=O)=O)cc2)cc1Oc1cc(Cl)cc(Br)c1Cl [Compound I-35, 2-[3-(3-Bromo-2,5-dichloro-phenoxy)-4-ethyl-phenyl]-N-(4-sulfamoyl-phenyl)-acetamide] | 206.9 to 209.9
CCc1cc(CC(=O)Nc2ccc(S(N)(=O)=O)cc2Cl)cc(Oc2cc(C#N)ccc2Cl)c1 [Compound I-107, 2-[3-(2-Chloro-5-cyano-phenoxy)-5-ethyl-phenyl]-N-(2-chloro-4-sulfamoyl-phenyl)-acetamide] | 204 to 207
Cc1cc(S(=O)(=O)CCCO)ccc1NC(=O)Cc1ccc(C)c(Oc2cc(Cl)cc(C#N)c2)c1 [Compound I-157, 2-[3-(3-Chloro-5-cyano-phenoxy)-4-methyl-phenyl]-N-[4-(3-hydroxy-propane-1-sulfonyl)-2-methyl-phenyl]-acetamide] | 78.9 to 79.5
CNS(=O)(=O)c1ccc(NC(=O)Cc2ccc(Cl)c(Oc3cc(Cl)cc(C#N)c3)c2F)c(C)c1 [Compound I-108, 2-[4-Chloro-3-(3-chloro-5-cyano-phenoxy)-2-fluoro-phenyl]-N-(2-methyl-4-methylsulfamoyl-phenyl)-acetamide] | 204.4 to 207.3
COc1ccc(CC(=O)Nc2ccc(S(N)(=O)=O)cc2C)cc1Oc1cc(Cl)cc(C#N)c1 [Compound I-73, 2-[3-(3-Chloro-5-cyano-phenoxy)-4-methoxy-phenyl]-N-(2-methyl-4-sulfamoyl-phenyl)-acetamide] | 222.3 to 224.3
COc1ccc(CC(=O)Nc2ccc(S(N)(=O)=O)cc2Cl)cc1Oc1cc(Cl)cc(C#N)c1 [Compound I-64, 2-[3-(3-Chloro-5-cyano-phenoxy)-4-methoxy-phenyl]-N-(2-chloro-4-sulfamoyl-phenyl)-acetamide] | 186.3 to 189.7
CCc1ccc(CC(=O)Nc2ccc(S(N)(=O)=O)cc2)cc1Oc1cc(C#N)cc(F)c1Cl [Compound I-49, 2-[3-(2-Chloro-5-cyano-3-fluoro-phenoxy)-4-ethyl-phenyl]-N-(4-sulfamoyl-phenyl)-acetamide] | 167.9 to 170.5
CCc1ccc(CC(=O)Nc2ccc(S(N)(=O)=O)cc2)cc1Oc1cc(Cl)ccc1Br [Compound I-15, 2-[3-(2-Bromo-5-chloro-phenoxy)-4-ethyl-phenyl]-N-(4-sulfamoyl-phenyl)-acetamide] | 193.7 to 195.9
NS(=O)(=O)c1ccc(NC(=O)Cc2cc(Oc3cc(Cl)cc(Cl)c3)c3occc3c2)c(Cl)c1 [Compound I-149, N-(2-Chloro-4-sulfamoyl-phenyl)-2-[7-(3,5-dichloro-phenoxy)-benzofuran-5-yl]-acetamide] | 215.1 to 216.6
